Experimental data: patent US11420956B2, “Ureas having Androgen Receptor degradation activity and uses thereof” (ACCUTAR BIOTECHNOLOGY INC., priority 2019, dated 2022)

target: T1, androgen receptor (AR) (Homo sapiens, UniProt P10275, T878A); assay: AR degradation in LNCAP cells (Western blot); type: cell-based; details: 24 hours after administration
T1 construct: endogenous in cells; host or cells: LNCAP
T1 sequence (P10275 1-920 T878A): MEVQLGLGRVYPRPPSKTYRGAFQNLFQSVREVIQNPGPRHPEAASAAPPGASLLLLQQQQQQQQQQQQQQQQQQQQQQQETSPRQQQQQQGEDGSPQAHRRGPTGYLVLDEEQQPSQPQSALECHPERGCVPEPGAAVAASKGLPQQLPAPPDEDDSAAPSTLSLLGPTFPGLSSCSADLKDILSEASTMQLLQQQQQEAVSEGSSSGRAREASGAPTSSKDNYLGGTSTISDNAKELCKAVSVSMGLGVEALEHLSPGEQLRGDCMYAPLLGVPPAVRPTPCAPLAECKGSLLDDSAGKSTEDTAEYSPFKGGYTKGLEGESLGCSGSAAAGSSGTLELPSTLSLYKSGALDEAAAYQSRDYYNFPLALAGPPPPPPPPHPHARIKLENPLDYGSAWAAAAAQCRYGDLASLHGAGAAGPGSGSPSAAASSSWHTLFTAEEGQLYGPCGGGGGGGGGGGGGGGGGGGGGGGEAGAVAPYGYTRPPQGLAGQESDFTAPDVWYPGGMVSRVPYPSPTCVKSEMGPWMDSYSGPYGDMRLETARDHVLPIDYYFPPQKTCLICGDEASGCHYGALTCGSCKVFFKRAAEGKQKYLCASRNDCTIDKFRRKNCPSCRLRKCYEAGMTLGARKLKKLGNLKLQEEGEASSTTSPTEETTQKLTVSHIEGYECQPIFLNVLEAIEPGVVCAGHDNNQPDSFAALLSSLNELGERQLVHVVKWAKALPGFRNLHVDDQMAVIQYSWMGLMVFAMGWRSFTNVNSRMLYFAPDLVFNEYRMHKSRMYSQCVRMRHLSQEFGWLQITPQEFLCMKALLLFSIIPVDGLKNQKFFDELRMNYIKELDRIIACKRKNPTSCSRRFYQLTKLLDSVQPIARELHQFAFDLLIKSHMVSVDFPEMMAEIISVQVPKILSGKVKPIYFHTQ
Method: LNCAP, VCAP and 22Rv1 cells were plated in 24-well plates at 1.5×10E5 cells/well in the RPMI growth medium containing 10% FBS and 1% Penicillin Streptomycin, and then incubated at 37° C. overnight. The following day, the test compound was administered to the cells by using 1000× compound stock solution prepared in DMSO at various concentrations. After administration of the compound, the cells were then incubated at 37° C. for 24 hours. Upon completion, the cells were washed with PBS and protein was collected in Laemmli sample buffer (1×; VWR International). Proteins in cell lysate were separated by SDS-PAGE and transferred to Odyssey nitrocellulose membranes (Licor) with iblot® dry blotting transfer system (ThermoFisher). Nonspecific binding was blocked by incubating membranes with Intercept Blocking Buffer (Licor) for 1 hour at room temperature with gentle shaking. The membranes were then incubated overnight at 4° C. with Primary antibodies rabbit anti-AR (1:1,000, Cell Signaling, 5153) and mouse anti-GAPDH (1:5,000, Santa Cruz Biotechnology, sc-47724) diluted in Intercept Blocking Buffer containing 0.1% Tween 20. After washing 3 times with TBS-T, the membranes were incubated with IRDye® […] goat anti-mouse IgG (1:20,000, Licor) or IRDye® […] goat anti-rabbit IgG (1:20,000, Licor) for 1 hour. After TBS-T washes, membranes were rinsed in TBS and scanned on Odyssey® CLx Imaging System (Licor). The bands were quantified using Image Studio™ Software (Licor).
Tables 5 and 6 summarize the androgen receptor (AR) degradative activity of exemplary compounds in LNCAP, VCAP and 22Rv1 cell lines 24 hours after administration. DC50: compound concentration needed for 50% target protein degradation.

Compound | DC50
C[C@@H]1CN(c2ccc(C#N)c(Cl)c2)[C@@H](C)CN1C(=O)Nc1ccc(N2CCC(CN3CCN(c4ccc5c(c4)CN([C@H]4CCC(=O)NC4=O)C5=O)CC3)CC2)c(F)c1 [Compound 1-46, (2R,5S)-4-(3-chloro-4-cyanophenyl)-N-(4-(4-((4-(2-((S)-2,6-dioxopiperidin-3-yl)-1-oxoisoindolin-5-yl)piperazin-1-yl)methyl)piperidin-1-yl)-3-fluorophenyl)-2,5-dimethylpiperazine-1-carboxamide] | ≤ 10 nM
C[C@@H]1CN(c2ccc(C#N)c(Cl)c2)[C@@H](C)CN1C(=O)Nc1ccc(N2CCC(CN3CCN(c4ccc5c(c4)C(=O)N(C4CCC(=O)NC4=O)C5=O)CC3)CC2)c(F)c1 (stereo partly drawn) [Compound 1-47, (2R,5S)-4-(3-chloro-4-cyanophenyl)-N-(4-(4-((4-(2-(2,6-dioxopiperidin-3-yl)-1,3-dioxoisoindolin-5-yl)piperazin-1-yl)methyl)piperidin-1-yl)-3-fluorophenyl)-2,5-dimethylpiperazine-1-carboxamide] | ≤ 10 nM
C[C@@H]1CN(c2ccc(C#N)c(C(F)(F)F)c2)[C@@H](C)CN1C(=O)Nc1cnc(N2CCC(CN3CCN(c4ccc5c(c4)CN([C@H]4CCC(=O)NC4=O)C5=O)CC3)CC2)nc1 [Compound 1-49, (2R,5S)-4-(4-cyano-3-(trifluoromethyl)phenyl)-N-(2-(4-((4-(2-((S)-2,6-dioxopiperidin-3-yl)-1-oxoisoindolin-5-yl)piperazin-1-yl)methyl)piperidin-1-yl)pyrimidin-5-yl)-2,5-dimethylpiperazine-1-carboxamide] | ≤ 10 nM
C[C@@H]1CN(c2ccc(C#N)c(C(F)(F)F)c2)[C@@H](C)CN1C(=O)Nc1ccc(N2CCC(CN3CCN(c4ccc5c(c4)CN([C@H]4CCC(=O)NC4=O)C5=O)CC3)CC2)c(F)c1 [Compound 1-50, (2R,5S)-4-(4-cyano-3-(trifluoromethyl)phenyl)-N-(4-(4-((4-(2-((S)-2,6-dioxopiperidin-3-yl)-1-oxoisoindolin-5-yl)piperazin-1-yl)methyl)piperidin-1-yl)-3-fluorophenyl)-2,5-dimethylpiperazine-1-carboxamide] | ≤ 10 nM
C[C@@H]1CN(c2ccc(C#N)c(Cl)c2)[C@@H](C)CN1C(=O)Nc1cnc(N2CCC(CN3CCN(c4ccc5c(c4)CN([C@H]4CCC(=O)NC4=O)C5=O)CC3)CC2)nc1 [Compound 1-51, (2R,5S)-4-(3-chloro-4-cyanophenyl)-N-(2-(4-((4-(2-((S)-2,6-dioxopiperidin-3-yl)-1-oxoisoindolin-5-yl)piperazin-1-yl)methyl)piperidin-1-yl)pyrimidin-5-yl)-2,5-dimethylpiperazine-1-carboxamide] | ≤ 10 nM
COc1cc(N2C[C@@H](C)N(C(=O)Nc3cnc(N4CCC(CN5CCN(c6ccc7c(c6)CN([C@H]6CCC(=O)NC6=O)C7=O)CC5)CC4)nc3)C[C@@H]2C)ccc1C#N [Compound 1-52, (2R,5S)-4-(4-cyano-3-methoxyphenyl)-N-(2-(4-((4-(2-((S)-2,6-dioxopiperidin-3-yl)-1-oxoisoindolin-5-yl)piperazin-1-yl)methyl)piperidin-1-yl)pyrimidin-5-yl)-2,5-dimethylpiperazine-1-carboxamide] | ≤ 10 nM
C[C@@H]1CN(c2ccc(C#N)c(Cl)c2)[C@@H](C)CN1C(=O)Nc1ccc(N2CCC(CN3CCN(c4cc5c(cc4F)C(=O)N([C@H]4CCC(=O)NC4=O)C5=O)CC3)CC2)nc1 [Compound 1-54, (2R,5S)-4-(3-chloro-4-cyanophenyl)-N-(6-(4-((4-(2-(2,6-dioxopiperidin-3-yl)-6-fluoro-1,3-dioxoisoindolin-5-yl)piperazin-1-yl)methyl)piperidin-1-yl)pyridin-3-yl)-2,5-dimethylpiperazine-1-carboxamide] | ≤ 10 nM
COc1cc(N2C[C@@H](C)N(C(=O)Nc3ccc(N4CCC(CN5CCN(c6cc7c(cc6F)C(=O)N([C@H]6CCC(=O)NC6=O)C7)CC5)CC4)c(F)c3)C[C@@H]2C)ccc1C#N [Compound 1-55, (2R,5S)-4-(4-cyano-3-methoxyphenyl)-N-(4-(4-((4-(2-((S)-2,6-dioxopiperidin-3-yl)-6-fluoro-1-oxoisoindolin-5-yl)piperazin-1-yl)methyl)piperidin-1-yl)-3-fluorophenyl)-2,5-dimethylpiperazine-1-carboxamide] | ≤ 10 nM
C[C@@H]1CN(c2ccc(C#N)c(Cl)c2)[C@@H](C)CN1C(=O)Nc1ccc(N2CCC(CN3CCN(c4cc5c(cc4F)C(=O)N([C@H]4CCC(=O)NC4=O)C5)CC3)CC2)c(F)c1 [Compound 1-56, (2R,5S)-4-(3-chloro-4-cyanophenyl)-N-(4-(4-((4-(2-((S)-2,6-dioxopiperidin-3-yl)-6-fluoro-1-oxoisoindolin-5-yl)piperazin-1-yl)methyl)piperidin-1-yl)-3-fluorophenyl)-2,5-dimethylpiperazine-1-carboxamide] | ≤ 10 nM
C[C@@H]1CN(c2ccc(C#N)c3ncccc23)[C@@H](C)CN1C(=O)Nc1cnc(N2CCC(CN3CCN(c4ccc5c(c4)C(=O)N(C4CCC(=O)NC4=O)C5=O)CC3)CC2)nc1 (stereo partly drawn) [Compound 2-8, (2R,5S)-4-(8-cyanoquinolin-5-yl)-N-(2-(4-((4-(2-(2,6-dioxopiperidin-3-yl)-1,3-dioxoisoindolin-5-yl)piperazin-1-yl)methyl)piperidin-1-yl)pyrimidin-5-yl)-2,5-dimethylpiperazine-1-carboxamide] | > 100 nM
C[C@@H]1CN(c2ccc(C#N)c3ncccc23)[C@@H](C)CN1C(=O)Nc1ccc(N2CCC(CN3CCN(c4ccc5c(c4)C(=O)N(C4CCC(=O)NC4=O)C5=O)CC3)CC2)nc1 (stereo partly drawn) [Compound 2-9, (2R,5S)-4-(8-cyanoquinolin-5-yl)-N-(6-(4-((4-(2-(2,6-dioxopiperidin-3-yl)-1,3-dioxoisoindolin-5-yl)piperazin-1-yl)methyl)piperidin-1-yl)pyridin-3-yl)-2,5-dimethylpiperazine-1-carboxamide] | > 100 nM
C[C@@H]1CN(c2ccc(C#N)c3ncccc23)[C@@H](C)CN1C(=O)Nc1cnc(N2CCC(CN3CCN(c4ccc5c(c4)CN([C@H]4CCC(=O)NC4=O)C5=O)CC3)CC2)nc1 [Compound 2-10, (2R,5S)-4-(8-cyanoquinolin-5-yl)-N-(2-(4-((4-(2-((S)-2,6-dioxopiperidin-3-yl)-1-oxoisoindolin-5-yl)piperazin-1-yl)methy)piperidin-1-yl)pyrimidin-5-yl)-2,5-dimethylpiperazine-1-carboxamide] | > 100 nM
C[C@@H]1CN(c2ccc(C#N)c3ncccc23)[C@@H](C)CN1C(=O)Nc1ccc(N2CCC(CN3CCN(c4ccc5c(c4)CN([C@H]4CCC(=O)NC4=O)C5=O)CC3)CC2)nc1 [Compound 2-11, (2R,5S)-4-(8-cyanoquinolin-5-yl)-N-(6-(4-((4-(2-((S)-2,6-dioxopiperidin-3-yl)-1-oxoisoindolin-5-yl)piperazin-1-yl)methyl)piperidin-1-yl)pyridin-3-yl)-2,5-dimethylpiperazine-1-carboxamide] | > 100 nM
C[C@@H]1CN(c2ccc(C#N)c3ncccc23)[C@@H](C)CN1C(=O)Nc1ccc(N2CCC(CN3CCN(c4ccc5c(c4)C(=O)N(C4CCC(=O)NC4=O)C5=O)CC3)CC2)c(F)c1 (stereo partly drawn) [Compound 2-12, (2R,5S)-4-(8-cyanoquinolin-5-yl)-N-(4-(4-((4-(2-(2,6-dioxopiperidin-3-yl)-1,3-dioxoisoindolin-5-yl)piperazin-1-yl)methyl)piperidin-1-yl)-3-fluorophenyl)-2,5-dimethylpiperazine-1-carboxamide] | > 100 nM
